{
  "source": "patent US8940497B2",
  "about": "“Enzyme regulating ether lipid signaling pathways” (The Scripps Research Institute, priority 2006, dated 2015)",
  "assay_type_in_all_cases": "cell-based, human",
  "key": {"[1]": {"test_system": "SKOV-3 cells", "experiment": "Targeted LC-MS analysis of lipid levels in inhibitor-treated cells", "protocol": "The following LC-MS conditions were used for analysis of cancer cell metabolomes. Cell pellets were harvested by scraping, isolated by centrifugation at 1,400×g, and dounce-homogenized in 4 mL of a 2:1:1 mixture of chloroform:methanol:Tris buffer (50 mM Tris*HCl, pH 8.0). Samples that were analyzed by targeted LC-MS were homogenized in the presence of the following synthetic standards: C15:0 MAG (50 pmol), C17:0 LPA (50 pmol), and 13C-C16:0 MAGE (25 pmol). Organic and aqueous layers were separated by centrifugation at 1,260×g for 5 min. The organic layer was then removed, dried under a stream of N2, and re-solubilized in 100 μL of chloroform, of which 30 μL was analyzed by LC-MS. Extraction of LPA was performed by acidifying the remaining aqueous layer to a final concentration of 5% formic acid, followed by the addition of 2 mL of chloroform. The mixture was vortexed, the organic layer removed, concentrated to dryness, and dissolved in 100 μL of chloroform, of which 30 μL was analyzed by LC-MS.\nLC-MS analysis was performed using an Agilent 1100 LC-MSD SL instrument. […] Mobile phase A was composed of a 95:5 ratio of water:methanol and mobile phase B consisted of 2-propanol, methanol, and water in a 60:35:5 ratio. Solvent modifiers such as 0.1% formic acid and 0.1% ammonium hydroxide were used to assist ion formation as well as improve the LC resolution in both positive and negative ionization modes respectively. The flow rate for each run started at 0.1 mL/min for 5 min, to alleviate backpressure associated with injecting chloroform. The gradient started at 0% B and increased linearly to 100% B over the course of 40 min with a flow rate of 0.4 mL/min, followed by an isocratic gradient of 100% B for 7 min before equilibrating for 8 min at 0% B with a flow rate of 0.5 mL/min.\nMS analysis was performed with an electrospray ionization (ESI) source. The capillary voltage was set to 3.0 kV and the fragmentor voltage to 100V. The drying gas temperature was 350° C., the drying gas flow rate was 10 L/min, and the nebulizer pressure was 35 psi. Untargeted data was collected using a mass range of 200-1000 Da and exported as common data format (.CDF) files for computational analysis. Differentially expressed metabolites between sample pairs were identified using the XCMS analyte profiling software (http://metlin/download) that aligns mass peaks from two LC-MS traces and quantifies the relative intensities of global metabolites (5). Significant inhibitor-sensitive peak changes were confirmed by manual quantification using the area under the peak normalized to total ion current. Targeted LC-MS measurements were made using selected ion monitoring (SIM). Peaks were quantified by measuring the area under the peak and normalized to an internal standard (C15:0 MAG) or endogenous lipid (palmitic acid). Absolute MAGE levels were estimated by comparison to a 13C-MAGE standard.\n(§1) Human ovarian cancer cell lines were obtained form the National Cancer Institute's Developmental Therapeutics Program. The melanoma lines C8161 and MUM-2B were obtained form Mary Hendrix. Cells were maintained in RPMI medium 1640 with 10% (v/v) fetal calf serum at 37° C. in a humidified atmosphere of 5% CO2/95% air. At approximately 80% confluency, cells were trypsinized, counted with the aid of a hemocytometer, and 2.5×10^6 cells were plated in 6 cm dishes. 20 h after plating cells were washed twice with PBS and supplemented with serum free RPMI containing 0.5% BSA (Sigma)(BSA-RPMI) with AS115 (0.01-10 μM) or vehicle (DMSO) at 0.1%. After incubation for 4 h the cells were harvested and analyzed by ABPP or LC-MS.\nBy extension, the m/z 345 and 347 metabolites were interpreted to represent the C18:1 and C18:0 MAGEs, respectively. […] MAGE levels were measured by targeted LC-MS analysis of SKOV-3 cells treated with AS115 (5 μM) or DMSO for 4 h using a 13C-C16:0 MAGE internal standard. Values are represented as pmol/10^6 cells. […]"}, "[2]": {"test_system": "other serine hydrolase activities", "experiment": "In situ competitive ABPP with FP-rhodamine, other serine hydrolases", "details": "SKOV-3 cells treated in culture with AS115 (0-10 μM), 4 h", "protocol": "as §1\n[…]. Cells were washed twice and scraped in ice-cold PBS. […] Proteomes protein concentrations were determined by a protein assay kit (Bio-Rad), adjusted to a final concentration of 1 mg/mL in Tris buffer, and treated with 2 μM FP-rhodamine for 30 min at room temperature (50 μL total reaction volume). […] Reactions were quenched with one volume of standard 2×SDS/PAGE loading buffer (reducing), separated by SDS/PAGE (10% acrylamide) and visualized in-gel with a Hitachi FMBio Ile flatbed fluorescence scanner (MiraiBio). Integrated band intensities were calculated for the labeled proteins and averaged from 3 independent cell samples to determine the level of each enzyme activity."}, "[3]": {"test_system": "SKOV-3 cells", "experiment": "Metabolic labeling of SKOV-3 cells with 13C-2-acetyl MAGE", "details": "10 μM 13C-2-acetyl MAGE, 1 h", "protocol": "Cells were cultured and maintained as described above. Cells used for 13C-2-acetyl MAGE experiments were incubated in BSA-RPMI containing inhibitor or vehicle for […]. BSA-RPMI medium was then removed, supplemented with 10 μM 13C-2-acetyl MAGE or DMSO, and re-applied to cells. After incubation for 1 h the cells were harvested and metabolomes were analyzed by LC-MS. 13C-MAGE experiments were conducted by addition of 13C-MAGE or DMSO containing BSA-RPMI directly after washing with PBS. Cells were then incubated for 4 h, harvested, and analyzed by LC-MS."}},
  "note": "Entries after “also recorded” stand apart in the source; their conditions may differ.",
  "data": [
    {"smiles": "CCCCOCC1CCCCC1COCCNC(=O)Oc1ccccc1F", "note": "(centres unmarked) [AS115]", "values": [
      {"measurement": "Basal levels of 2-acetyl MAGE", "setting": "[1]", "value": "not significantly altered"},
      {"measurement": "Basal levels of PAF", "setting": "[1]", "value": "not significantly altered"},
      {"measurement": "Absolute level of MAGE lipid C18:1", "setting": "[1]; 5 μM, 4 h, 13C-C16:0 MAGE internal standard, DMSO 12.1 ± 0.4", "value": "4.0 ± 0.7", "unit": "pmol/10^6 cells"},
      {"measurement": "Absolute level of MAGE lipid C18:0", "setting": "[1]; 5 μM, 4 h, 13C-C16:0 MAGE internal standard, DMSO 39.5 ± 3.7", "value": "7.6 ± 2.3", "unit": "pmol/10^6 cells"},
      {"measurement": "Absolute level of MAGE lipid C16:0", "setting": "[1]; 5 μM, 4 h, 13C-C16:0 MAGE internal standard, DMSO 94.7 ± 6.6", "value": "19.3 ± 2.2", "unit": "pmol/10^6 cells"},
      {"measurement": "Levels of MAGE lipids", "setting": "[1]; compared to DMSO controls", "value": "significantly lowered; also recorded: reduce"},
      {"measurement": "Levels of alkyl-LPA", "setting": "[1]; vs vehicle, FIG. 7B", "value": "reduce"},
      {"measurement": "Levels of alkyl-LPC", "setting": "[1]; vs vehicle, FIG. 7B", "value": "reduce"},
      {"measurement": "IC50", "setting": "[2]", "value": "> 10", "unit": "µM"},
      {"measurement": "Levels of 2-acetyl MAGE as judged by metabolic labeling", "setting": "[3]", "value": "significantly stabilized"},
      {"measurement": "PAF level in metabolic labeling experiments", "setting": "[3]", "value": "accumulation"}
    ]}
  ]
}
